Source: patent US20220016115A1, “USP19 INHIBITORS FOR USE IN THERAPY” (ALMAC DISCOVERY LIMITED, priority 2018, published 2022)

What follows are molecules tested against T1, USP19 (Homo sapiens, UniProt O94966) (assay: USP19 fluorescence polarisation (FP) homogeneous assay). Conditions: Ubiquitin-Lys-TAMRA substrate, full-length USP19 2.5 nM, average of at least two duplicate experiments.
T1 sequence (O94966 1-1318): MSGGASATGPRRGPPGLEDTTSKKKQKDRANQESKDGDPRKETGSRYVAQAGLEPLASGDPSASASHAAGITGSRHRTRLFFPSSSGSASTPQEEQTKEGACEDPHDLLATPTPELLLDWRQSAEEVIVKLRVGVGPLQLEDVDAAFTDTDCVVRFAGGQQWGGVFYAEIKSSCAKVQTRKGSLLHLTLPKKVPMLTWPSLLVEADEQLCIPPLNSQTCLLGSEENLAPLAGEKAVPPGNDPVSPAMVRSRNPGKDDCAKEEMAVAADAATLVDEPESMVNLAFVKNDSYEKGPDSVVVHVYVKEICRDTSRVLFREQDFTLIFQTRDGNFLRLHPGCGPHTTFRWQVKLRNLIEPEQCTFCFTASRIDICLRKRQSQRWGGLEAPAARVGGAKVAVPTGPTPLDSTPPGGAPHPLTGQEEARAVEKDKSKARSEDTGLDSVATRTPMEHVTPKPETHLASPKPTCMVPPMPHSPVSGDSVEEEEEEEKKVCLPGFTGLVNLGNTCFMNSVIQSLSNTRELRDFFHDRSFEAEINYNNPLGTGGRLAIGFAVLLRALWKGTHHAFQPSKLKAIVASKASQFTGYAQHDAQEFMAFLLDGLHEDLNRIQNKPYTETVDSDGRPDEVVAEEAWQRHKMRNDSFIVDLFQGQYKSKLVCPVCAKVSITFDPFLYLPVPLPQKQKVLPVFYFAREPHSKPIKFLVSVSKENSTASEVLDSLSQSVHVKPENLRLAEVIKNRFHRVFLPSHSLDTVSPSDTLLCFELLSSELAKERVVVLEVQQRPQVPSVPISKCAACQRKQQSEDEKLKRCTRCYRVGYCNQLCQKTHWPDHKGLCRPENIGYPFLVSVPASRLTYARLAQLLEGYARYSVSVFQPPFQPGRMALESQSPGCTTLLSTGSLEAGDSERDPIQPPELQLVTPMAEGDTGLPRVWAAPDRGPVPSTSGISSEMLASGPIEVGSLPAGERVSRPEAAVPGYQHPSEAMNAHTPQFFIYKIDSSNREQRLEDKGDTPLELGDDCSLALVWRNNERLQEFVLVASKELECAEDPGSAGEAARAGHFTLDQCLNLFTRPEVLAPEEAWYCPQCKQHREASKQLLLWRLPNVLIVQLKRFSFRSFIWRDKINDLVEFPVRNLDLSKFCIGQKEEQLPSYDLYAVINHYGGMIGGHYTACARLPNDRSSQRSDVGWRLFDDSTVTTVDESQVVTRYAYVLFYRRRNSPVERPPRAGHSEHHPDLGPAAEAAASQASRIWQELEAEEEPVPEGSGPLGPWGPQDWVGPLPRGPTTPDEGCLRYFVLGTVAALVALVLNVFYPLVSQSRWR
Type: biochemical
Parameters: Full-length USP19 was purchased from Boston Biochem (E-576); purchased Boston Biochem E-576
Outline: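 Inhibitors serially diluted in buffer (200 μM to 2 μM, 8-18 points) and preincubated 30 min at RT before starting with 500 nM Ub substrate.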
`CN(C)C(=O)c1cn(C[C@@]2(O)CCN(C(=O)[C@H](CO)CC3CCCCC3)CC2(C)C)c(=O)cc1-c1ccccc1` [Example 153, 1-(((R)-1-((S)-3-Cyclohexyl-2-(hydroxymethyl)propanoyl)-4-hydroxy-3,3-dimethylpiperidin-4-yl)methyl)-N,N-dimethyl-6-oxo-4-phenyl-1,6-dihydropyridine-3-carboxamide] gave an IC50 of 5000 to 50000 nM.
`C[C@H](CC(C)(F)F)C(=O)N1CC[C@@](O)(Cn2cnc(-c3ccccc3)cc2=O)C2(CCCC2)C1` [Example 258, 3-(((S)-7-((R)-4,4-Difluoro-2-methylpentanoyl)-10-hydroxy-7-azaspiro[4.5]decan-10-yl)methyl)-6-phenylpyrimidin-4(3H)-one] was tested, and the IC50 was under 500 nM.
Work on `C[C@H](CC1CCCCC1)C(=O)N1CCC(O)(Cn2cnc(-c3ccsc3)cc2=O)C(C)(C)C1` (some centres unmarked) [Example 135] yielded an IC50 of under 500 nM.
`O=C([C@@H]1CCNC[C@H]1c1ccccc1)N1CCC(O)(Cn2cnc(-c3ccccc3)cc2=O)C2(CCCC2)C1` (stereo partly drawn) [Example 254, 3-((10-Hydroxy-7-((3R,4R)-3-phenylpiperidine-4-carbonyl)-7-azaspiro[4.5]decan-10-yl)methyl)-6-phenylpyrimidin-4(3H)-one] showed an IC50 of under 500 nM.
Work on `CCOC(=O)c1cn(C[C@]2(O)CCN(C(=O)[C@H](C)CC3CCCCC3)CC23CCCC3)c(=O)cc1-c1ccccc1` [Example 252, Ethyl 1-(((S)-7-((R)-3-cyclohexyl-2-methylpropanoyl)-10-hydroxy-7-azaspiro[4.5]decan-10-yl)methyl)-6-oxo-4-phenyl-1,6-dihydropyridine-3-carboxylate] yielded an IC50 of under 500 nM.
In the case of `CN(C)C(=O)c1cn(C[C@@]2(O)CCN(C(=O)[C@H](CO)CC3CCC3)CC2(C)C)c(=O)cc1-c1ccccc1` [Example 167, 1-(((R)-1-((S)-3-Cyclobutyl-2-(hydroxymethyl)propanoyl)-4-hydroxy-3,3-dimethylpiperidin-4-yl)methyl)-N,N-dimethyl-6-oxo-4-phenyl-1,6-dihydropyridine-3-carboxamide], the IC50 is reported as 5000 to 50000 nM.
Molecule `C[C@H](CC1CCCCC1)C(=O)N1CCC(O)(Cn2cc(C(=O)N(C)C)c(-c3ccccc3)cc2=O)C2(CCCCC2)C1` (stereo partly drawn) [Example 237, 1-((2-((R)-3-Cyclohexyl-2-methylpropanoyl)-5-hydroxy-2-azaspiro[5.5]undecan-5-yl)methyl)-N,N-dimethyl-6-oxo-4-phenyl-1,6-dihydropyridine-3-carboxamide] has an IC50 of under 500 nM.
`C[C@H](CC1CCC1)C(=O)N1CC[C@@](O)(Cn2cc(C(=O)N(C)C)c(-c3ccccc3)cc2=O)C2(CCCC2)C1` [Example 214, 1-(((S)-7-((R)-3-Cyclobutyl-2-methylpropanoyl)-10-hydroxy-7-azaspiro[4.5]decan-10-yl)methyl)-N,N-dimethyl-6-oxo-4-phenyl-1,6-dihydropyridine-3-carboxamide] was tested, and the IC50 was under 500 nM.
In the case of `CC(CC1CCC1)C(=O)N1CCC(O)(Cn2cc(C(=O)N3CCCCC3)c(-c3ccccc3)cc2=O)CC1` (racemic) [Example 15, (R,S)-1-((3-Cyclobutyl-2-methylpropanoyl)-4-hydroxypiperidin-4-yl)methyl)-4-phenyl-5-(piperidine-1-carbonyl)pyridin-2(1H)-one], the IC50 is reported as 5000 to 50000 nM.
`C[C@H](CC1CCCCC1)C(=O)N1CC[C@@](O)(Cn2cc(C(=O)N3CCOCC3)c(-c3ccccc3)cc2=O)C2(CCCC2)C1` [Example 239, 1-(((S)-7-((R)-3-Cyclohexyl-2-methylpropanoyl)-10-hydroxy-7-azaspiro[4.5]decan-10-yl)methyl)-5-(morpholine-4-carbonyl)-4-phenylpyridin-2(1H)-one] gave an IC50 of under 500 nM.
Molecule `C[C@H](CC1CCCCC1)C(=O)N1CC[C@@](O)(Cn2cc(C(=O)N(C)C)c(-c3ccccc3)cc2=O)C2(CCCC2)C1` [Example 211, 1-(((S)-7-((R)-3-Cyclohexyl-2-methylpropanoyl)-10-hydroxy-7-azaspiro[4.5]decan-10-yl)methyl)-N,N-dimethyl-6-oxo-4-phenyl-1,6-dihydropyridine-3-carboxamide] has an IC50 of under 500 nM.
